Series [1] relates to zebrafish (Danio rerio) embryos. In words: Zebrafish (D. rerio) embryotoxicity. It is filed as in vivo. The note with it: for death rate: 10 µg/mL applied at 6 hpf. How it is done: Wild-type zebrafish (Danio rerio) strain was obtained from the commercial supplier Pet Center, Belgrade, Serbia. Zebrafish embryotoxicity assay was performed according to general rules of the OECD Guidelines for the testing of chemicals. The wild-type zebrafish (D. rerio) strain was kept under controlled environmental conditions (water temperature 28 °C, 14 h under the light and 10 h in the dark) and fed regularly three times a day with commercially dry flake food supplemented with Artemia nauplii (TetraMinTM flakes; Tetra Melle, Germany). Zebrafish embryos were produced by female and male adults mating in the ratio of 1:2. Obtained embryos were collected and washed from detritus and carefully handled. Only fertilized embryos were selected and distributed into 24-well plates (Sarstedt, Germany) containing 10 embryos per well. Each well contained exactly 1 mL of water for embryos (0.2 g/L of Instant Ocean® Salt in distilled water). For assessing lethal and developmental toxicity, embryos at the 6 and 20 h postfertilization (hpf) stages were treated with selected compounds at concentrations of 0.1–100 μg/mL (maximum DMSO concentration in the negative control was 1%) and incubated at 28 °C. Experiments were performed in triplicate, using 30 embryos for each concentration. For five days, the appearance of different morphophysiological parameters in embryo development was monitored, and dead embryos were counted and discarded every 24 h. On the fifth day, the embryos were anesthetized by the addition of 0.1% (w/v) tricaine solution (Sigma-Aldrich, St. Louis, Missouri, US), observed under a stereomicroscope (SMZ-143-N2GG, Motic, Germany) at 3.5× magnification, photographed, and killed by freezing at −20 °C for ≥24 h. All experiments involving zebrafish were performed in compliance with the European directive 2010/63/EU and the ethical guidelines of the Guide for Care and Use of Laboratory Animals of the Institute of Molecular Genetics and Genetic Engineering, University of Belgrade, Serbia.

The test system of series [2] is A549, A375, MDA-MB-231, and HCT116 cancer cell lines. Put plainly: MTT assay, whole cell line panel. It is filed as cell-based. The note with it: 48 h. How it is done: (§1) Selected cell lines MRC-5 (lung fibroblasts), A549 (lung cancer), A375 (melanoma, skin cancer), MDA-MB-231 (breast cancer), and HCT116 (colon cancer) were obtained from ATCC, Manassas, US. Antiproliferative activities of PG and its Br derivatives were measured using the standard colorimetric MTT [3-(4,5-dimethylthiazol-2-yl)-2,5-diphenyltetrazolium bromide] assay. Briefly, cells were plated in a 96-well flat-bottom plate (Sarstedt, Nümbrecht, Germany) at a concentration of 1 × 10^4 cells per well, grown in a humidified atmosphere of 95% air and 5% CO2 at 37 °C, and maintained as monolayer cultures in RPMI 1640 medium supplemented with 10% fetal bovine serum (FBS), 100 U/mL penicillin, and 100 μg/mL streptomycin (all media components from Gibco™ by Thermo Fischer Scientific CE). Each tested compound was added to the cells at a concentration of 0.05–100.00 μg/mL, and the treatment lasted for 48 h. The MTT assay was performed two times in four replicates, and the results were presented as a percentage of the DMSO-treated control that was arbitrarily set to 100%. Plates were read using the Tecan Infinite 200 Pro multiplate reader (Tecan Group Ltd., Männendorf, Switzerland).
In general terms: Tetrazolium assays rely on reduction of a dye to a coloured formazan, in cell work by metabolically active cells.

The test system of series [3] is A375 (melanoma, skin cancer). In words: MTT antiproliferative assay on A375 cells. It is filed as cell-based. The following applies: Homo sapiens. The procedure: as §1
In series [4] the test system is Caenorhabditis elegans AU37. In words: Roundworm (C. elegans) survival assay. It is filed as in vivo. The note with it: for Survival rate: 48 h. The procedure: Nematode roundworms (Caenorhabditis elegans AU37) were obtained from the Caenorhabditis Genetics Center (CGC), University of Minnesota, Minneapolis, Minnesota, US. C. elegans AU37 (glp-4; sek-1) was propagated under standard conditions, synchronized by hypochlorite bleaching, and cultured on nematode growth medium using E. coli OP50 as a food source, as described previously. The C. elegans survival assay was carried out following the standard procedure with some modifications. Briefly, synchronized worms (L4 stage) were suspended in a medium containing 95% M9 buffer (3.0 g of KH2PO4, 6.0 g of Na2HPO4, 5.0 g of NaCl, and 1 mL of 1 M MgSO4∙7H2O in 1 L of water), 5% LB broth, and 10 μg/mL of cholesterol (Sigma-Aldrich, Munich, Germany). The experiment was carried out in 96-well flat-bottomed microtiter plates (Sarstedt, Nümbrecht, Germany) in the final volume of 100 μL per well. 25 μL of this suspension of nematodes (25–35 nematodes) were transferred to the wells of a 96-well microtiter plate, where 50 μL of the medium was previously added. Next, 25 μL of the solvent control (1% DMSO) or 25 μL of the concentrated tested compound solution was added to the test wells. Final concentrations of the compounds were 50.00, 25.00, 12.50, 6.25, 3.13, and 1.57 µg/mL. Subsequently, the plates were incubated at 25 °C for 2 days. The fraction of dead worms was determined after 48 h by counting the number of dead worms and the total number of worms in each well, using a Carl Zeiss™ Stemi 508 Stereomicroscope (Zeiss Group, Jena, Germany) at 40× magnification. The compounds were tested three times in each assay and each assay was repeated two times (n = 6). As a negative control experiment, nematodes were exposed to the medium containing 1% DMSO.

In the next series the test system is MRC-5 cells. Put plainly: Annexin V flow cytometry, early apoptosis. It is filed as cell-based. The note with it: MRC-5, compound at IC50 concentration, 24 h. The procedure: The eBioscience^TM Annexin V Apoptosis Detection Kit APC (Invitrogen by Thermo Fischer Scientific, Waltham, MA, USA) was used for the assessment of cellular integrity and the externalization of phosphatidylserine. MRC-5 cells were plated in a 6-well flat-bottom plate at a concentration of 2.5 × 10^5 cells per well, grown for 24 h in a humidified atmosphere of 95% air and 5% CO2 at 37 °C in RPMI 1640 medium supplemented with 10% fetal bovine serum (FBS), 100 U/mL penicillin, and 100 μg/mL streptomycin (Gibco™ by Thermo Fischer Scientific CE, Waltham, MA, USA). Each tested compound was added to the cells at IC50 concentration, and the incubation continued for another 24 h under the same conditions. Upon incubation, cells were collected, washed once with Dulbecco’s Phosphate-Buffered Saline (Gibco™ by Thermo Fischer Scientific CE, Waltham, MA, USA), and stained with Annexin V FITC and propidium iodide (PI) under the manufacturer’s instructions. Briefly, MRC-5 cells were resuspended in 1 × Binding Buffer at 1–5 × 10^6 cells per mL and incubated with 5.00 µL Annexin V FITC for 15 min at room temperature in a final volume of 100 μL. […] Immediately after staining, cells were analyzed using a CyFlow Space Partec flow cytometer, with Partec FloMax software (Partec GmbH, Münster, Germany).
On the technique in general: In flow cytometry, cells or beads pass a laser one at a time.

Converted amounts (≈) assume the structure as drawn. Read-outs that look alike come from different tables or passages of the source.

In series [1], `CCCCCC1=CC(=Cc2[nH]c(-c3ccc[nH]3)cc2OC)N=C1C` [PG, 4-Methoxy-5-[(5-methyl-4-pentyl-2H-pyrrol-2-ylidene)methyl]-1H,1'H-2,2'-bipyrrole] had a death rate of 100%. For the same compound, the effect on embryos result in series [1] (2.5 and 0.1 µg/mL, both at 6 hpf and 20 hpf) is recorded as “all the embryos survived, but developed into slightly smaller fish with microcephaly”. Moreover, the concentration for half-maximal inhibition (IC50) in series [2] (read-out: IC50 values range over the tested cancer cell lines) is 0.62 to 1.3 µg/mL (≈ 1.92 to 4.02 µM); in series [3] (A-375, 48 h) it was 1.25 ± 0.04 µg/mL (≈ 3.86 µM). The Survival rate in series [4] (1.57 µg/mL), in series [4] (3.13 µg/mL), in series [4] (6.25 µg/mL), in series [4] (12.50 µg/mL), in series [4] (25.00 µg/mL) and in series [4] (50.00 µg/mL) was 100 ± 0.00% each time. Besides, the “Annexin V Positive Cells” value in the series with MRC-5 cells came out at 20.3 ± 0.5%.
`CCCCCC1=C(Br)/C(=C/c2[nH]c(-c3[nH]ccc3Br)cc2OC)N=C1C` [PG-Br2]: the death rate in series [1] is recorded as 0%. In series [1] (20 µg/mL, 6 hpf and 20 hpf), the embryos survival rate came out at 100%. In addition, in series [1] (20 µg/mL, 6 hpf and 20 hpf), the teratogenic effects result is “without any teratogenic effects”. Moreover, in series [1] (50–70 µg/mL, application at 6 hpf), the effect on embryos entry was “severe toxicity and abnormal development”. For the same compound, the “lower cytotoxicity in comparison to PG” value in series [2] (human) is recorded as 8-27 fold. The half-maximal inhibitory concentration (IC50) in series [3] (A-375, A375, 48 h treatment, read-out: IC50) stood at 12 ± 0.04 µg/mL (≈ 24.9 µM). Also, the Survival rate in series [4] (1.57 µg/mL), in series [4] (3.13 µg/mL), in series [4] (6.25 µg/mL), in series [4] (12.50 µg/mL), in series [4] (25.00 µg/mL) and in series [4] (50.00 µg/mL) was 100 ± 0.00% in each case. Besides, the motility of nematodes entry in series [4] (all tested concentrations) is given as “significantly impaired”. Further, in the series with MRC-5 cells, the “Annexin V Positive Cells” value came to 19.6 ± 0.6%.

A word on the IC50: it is the point on the concentration scale where inhibition reaches its midpoint.

(Values after publication PMC9227013, “Synthesis, Anticancer Potential and Comprehensive Toxicity Studies of Novel Brominated Derivatives of Bacterial Biopigment Prodigiosin from Serratia marcescens ATCC 27117” (Molecules, 2022).)
